Assay results from patent US20240246960A1 (adMare Therapeutics Society, priority 2021, published 2024).
Like-named read-outs stand apart in the source and are kept apart here.

What was measured:
[1] = biological target: T1, pDNA-PK ser2056 induction in HCT116 spheroids (Homo sapiens, UniProt P78527); assay: Multicellular tumour spheroid + radiation, pDNA-PK inhibition, HCT116; format: cell-based; conditions: 20 Gy
T1 construct: endogenous in cells; host or cells: HCT116 multicellular tumour spheroids
Experimental: Multicellular tumour spheroids determination of compound inhibition of pDNA-PK induction following radiation. Tumour spheroids were grown to approximately 0.5 mm in diameter and irradiated with 20 Gy in combination with inhibitor test compounds to determine their potency. Inhibitor concentration for 50% reduction in pDNA-PK induction (IC50) was determined via immunohistochemical staining in spheroid cryosections taken 2 hours following radiation.
Spheroid, Cell Line: […], Immunohistochemical endpoint, pDNA-PK inhibition, EC50 in μm.
(§1) Spheroid+radiation pDNA-PK. Radiation: 20 Gy. Drug: serial dilution 5 or 10 μM down to 3.5 nM (11 wells). Spheroids: 3-6 spheroids per well (300-500 μm diameter). 20% O2 and 5% CO2. 96 well plate format.
Protocol: pre-incubate 1 hours with drug, irradiate with 20 Gy, post-incubate 2 hours with drug, freeze and cryosection ×3 replicates.
Endpoint: fluorescent immunostin pDNA-PK ser2056 and image on microscope.
Analysis: determine EC50 concentration that decreases pDNA-PK induction by 50% after radiation.
Multicellular tumour spheroids determination of compound inhibition of pDNA-PK induction following radiation. Tumour spheroids were grown to approximately 0.5 mm in diameter and irradiated with 20 Gy in combination with inhibitor test compounds to determine their potency. Inhibitor concentration for 50% reduction in pDNA-PK induction (IC50) was determined via immunohistochemical staining in spheroid cryosections taken 2 hours following radiation. For cell survival endpoint 8 Gy radiation was used and 3 hours following radiation spheroids were dissociated, counted and plated for colony forming endpoint.
as §1, with “format. Endpoint: fluorescent immunostain pDNA-PK ser2056 and image on microscope. Analysis: determine EC50 concentrations that decreases pDNA-PK induction […] after irradiation.” for “format.”
Multicellular tumour spheroids were used to determine potency of test compounds in a 3D tissue environment using inhibition of pDNA-PK induction following radiation or cell survival as the endpoint. For the pDNA-PK endpoint HCT116 or FaDU tumour spheroids were grown to approximately 0.5 mm in diameter and irradiated with 20 Gy in combination with inhibitor test compounds to determine their potency. Experiments were carried out in 96 well plates containing 0.7 mls of MEM media containing 10% FBS and 10 mM glucose under 20% O2 & 5% CO2 at 37° C. Following dilution of compounds 1:1000 from DMSO stocks, compounds were serially diluted from 10 μM down to 3.5 nM and 5-10 spheroids added. 96 well plates were constantly stirred to avoid spheroids settling during the course of the experiment. The inhibitor concentration for 50% reduction in pDNA-PK induction (EC50) was determined via immunohistochemical staining in spheroid cryosections taken 2 hours following radiation using anti-pDNA-PK (ser 2056) and fixed immediately in formalin following sectioning. For cell survival endpoint 8 Gy radiation was used and, 3 hours following radiation, spheroids were dissociated, counted and plated for colony forming endpoint. Data presented in the table compound potency as EC50 [μM].

[2] = biological target: T2, DNA-PK phosphorylation at Serine 2056 (Homo sapiens, UniProt P78527); assay: Cellular Assay for Inhibition of DNA-PK Phosphorylation at Serine 2056 (FaDu cells, neocarzinostatin, sandwich ELISA); format: cell-based; conditions: Table 1
T2 construct: host or cells: FaDu
Method in brief: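 Readout was pSer2056 and total DNA-PK, measured by sandwich ELISA on protein-normalized lysates. Prior to lysis, compound was applied to FaDu cells for 1 h (0.3% DMSO), followed by 2 h of 1 μg/mL neocarzinostatin. IC50 values were fitted from log concentration versus % inhibition normalized to DMSO and NCS controls.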

[3] = biological target: T3, DNA-PK (Homo sapiens, UniProt P78527); assay: DNA-PK Assay for Biochemical Enzymatic Inhibition (ADP Glo Kinase assay); conditions: Table 1
T3 construct: purchased Invitrogen PR9107A
Method in brief: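 Human DNA-PK (25 ng) preincubated 15 min with compounds (ten three-fold dilutions) in HEPES pH 7.5, MgCl2, KCl, calf thymus DNA buffer, then substrate 434.4 μM and ATP 64.4 μM (final) for 60 min at room temperature. ADP-Glo luminescence; percent inhibition fitted by four-parameter regression for IC50.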

[4] = Microsomal stability assay, mouse liver microsomes; conditions: for microsomal CLint at 0.1 uM: male, CD-1, mouse, liver microsomes, pH 7.4, Microsomal Stability Mouse Clint, 0.1 mg/mL microsomes, 0.1 uM compound
Protocol: Mouse liver microsomes were obtained from a pool of 250 or more male CD-1 mice. […] Final microsomal concentration was 0.1 mg/mL and test compound concentration was 0.1 uM with a maximum of 0.01% DMSO. The test compound was pre-incubated with pooled liver microsomes in phosphate buffer (pH 7.4) for 5 min in a 37° C. shaking water bath. The reaction was initiated by adding NADPH-generating system and incubated for 0, 15, 30, 45, and 60 min. The reaction was stopped by transferring the incubation mixture to acetonitrile/methanol. Samples were then mixed and centrifuged. Supernatants were used for HPLC-MS/MS analysis. The HPLC system consisted of a binary LC pump with autosampler, a C-18 column, and a gradient. Peak areas corresponding to the test compound were recorded. The compound remaining was calculated by comparing the peak area at each time point to time zero. The half-life was calculated from the slope of the initial linear range of the logarithmic curve of compound remaining (%) vs. time, assuming first order kinetics. In addition, the intrinsic clearance (Clint) was calculated from the half-life.

[5] = Example 7, spheroid, cell line HCT115 [sic], 20% O2, read-out: EC50 (pDNA-PK inhibition, immunohistochemical endpoint)
[6] = Example 9 Study 2, 20% O2, read-out: Spheroid Cell line: HCT116 Immunohistochemical endpoint pDNA-PK inhibition EC50
[7] = Example 8, spheroid, read-out: Cell line: HCT116 Immunohistochemical endpoint pDNA-PK inhibition EC50

Row | SMILES | EC50 [1, 5] [µM] | EC50 [1, 6] [µM] | IC50 [2] [µM] | IC50 [3] [µM] | Microsomal Stability (mouse) % rem. 60 min [4] | microsomal CLint at 0.1 uM [4] [µL/min/mg] | EC50 [1, 7] [µM]
1 | COc1cnc(N[C@H]2CC[C@@H](Oc3nc(N4CCOCC4)cc4ncc(N)cc34)CC2)nc1 [Compound 202, 5-(((1s,4s)-4-((5-methoxypyrimidin-2-yl)amino)cyclohexyl)oxy)-7-morpholino-1,6-naphthyridin-3-amine] | 1 to 10 | 1 to 10 | < 0.1 | < 0.0005 | E (% remaining = 0-25%) | > 116 | –
2 | O=C(N[C@H]1CC[C@@H](Oc2nc(N3CCOCC3)cc3ncccc23)CC1)c1scnc1Cl [Compound 139, 4-chloro-N-((1s,4s)-4-((7-morpholino-1,6-naphthyridin-5-yl)oxy)cyclohexyl)thiazole-5-carboxamide] | 10 to 100 | 10 to 100 | 0.1 to 1 | 0.001 to 0.01 | G (% remaining = 50-75%) | < 116 | –
3 | COc1cnc(N[C@H]2CC[C@@H](Oc3nc(N4CCOCC4)cc4ncccc34)CC2)nc1 [Compound 20c, 5-Methoxy-N-((1s,4s)-4-((7-morpholino-1,6-naphthyridin-5-yl)oxy)cyclohexyl)pyrimidin-2-amine] | 0.5 to 1 | 0.5 to 1 | < 0.1 | 0.001 to 0.01 | E (% remaining = 0-25%) | > 116 | 0.5 to 1
4 | O=C(N[C@H]1CC[C@@H](Oc2nc(N3CCOCC3)cc3ncccc23)CC1)N1CCOCC1 [Compound 14, N-((1s,4s)-4-((7-morpholino-1,6-naphthyridin-5-yl)oxy)cyclohexyl)morpholine-4-carboxamide] | 1 to 10 | 1 to 10 | 0.1 to 1 | 0.001 to 0.01 | G (% remaining = 50-75%) | < 116 | 1 to 10
5 | c1cncc(N[C@H]2CC[C@@H](Oc3nc(N4CCOCC4)cc4ncccc34)CC2)c1 [Compound 26, N-((1s,4s)-4-((7-morpholino-1,6-naphthyridin-5-yl)oxy)cyclohexyl)pyridin-3-amine] | 1 to 10 | 1 to 10 | 0.1 to 1 | 0.0005 to 0.001 | E (% remaining = 0-25%) | > 116 | 1 to 10
6 | Cc1cnc(C(=O)N[C@H]2CC[C@@H](Oc3nc(N4CCOCC4)cc4ncccc34)CC2)nc1 [Compound 128, 5-methyl-N-((1s,4s)-4-((7-morpholino-1,6-naphthyridin-5-yl)oxy)cyclohexyl)pyrimidine-2-carboxamide] | 1 to 10 | 1 to 10 | 0.1 to 1 | 0.0005 to 0.001 | F (% remaining = 25-50%) | > 116 | –
7 | c1cnc(N[C@H]2CC[C@H](Oc3nc(N4CCOCC4)cc4ncccc34)CC2)nc1 [Compound 24, N-((1r,4r)-4-((7-morpholino-1,6-naphthyridin-5-yl)oxy)cyclohexyl)pyrimidin-2-amine] | – | – | – | 0.01 to 0.15 | F (% remaining = 25-50%) | > 116 | –
8 | Cc1nn([C@H]2CC[C@@H](Oc3nc(N4CCOCC4)cc4ncccc34)CC2)cc1C(F)(F)F [Compound 17g, 4-(5-(((1s,4s)-4-(3-methyl-4-(trifluoromethyl)-1H-pyrazol-1-yl)cyclohexyl)oxy)-1,6-naphthyridin-7-yl)morpholine] | – | – | 1 to 10 | 0.001 to 0.01 | E (% remaining = 0-25%) | > 116 | –
9 | O=C(N[C@H]1CC[C@@H](Oc2nc(N3CCOCC3)cc3ncccc23)CC1)n1cccn1 [Compound 136, N-((1s,4s)-4-((7-morpholino-1,6-naphthyridin-5-yl)oxy)cyclohexyl)-1H-pyrazole-1-carboxamide] | 1 to 10 | 1 to 10 | 0.1 to 1 | 0.0005 to 0.001 | E (% remaining = 0-25%) | > 116 | –
10 | Brc1cnc2cc(N3CCOCC3)nc(O[C@H]3CC[C@@H](Nc4ncccn4)CC3)c2c1 [Compound 18a, N-((1s,4s)-4-((3-Bromo-7-morpholino-1,6-naphthyridin-5-yl)oxy)cyclohexyl)pyrimidin-2-amine] | 1 to 10 | 1 to 10 | 0.1 to 1 | 0.001 to 0.01 | E (% remaining = 0-25%) | > 116 | 1 to 10
11 | O=C(N[C@H]1CC[C@@H](Oc2nc(N3CCOCC3)cc3ncccc23)CC1)c1cnccn1 [Compound 119, N-((1s,4s)-4-((7-morpholino-1,6-naphthyridin-5-yl)oxy)cyclohexyl)pyrazine-2-carboxamide] | 1 to 10 | 1 to 10 | 0.1 to 1 | 0.0005 to 0.001 | E (% remaining = 0-25%) | > 116 | –
12 | Nc1cnc2cc(N3CCOCC3)nc(O[C@H]3CC[C@@H](Nc4ncccn4)CC3)c2c1 [Compound 184, 7-morpholino-5-(((1s,4s)-4-(pyrimidin-2-ylamino)cyclohexyl)oxy)-1,6-naphthyridin-3-amine] | 1 to 10 | 1 to 10 | < 0.1 | < 0.0005 | E (% remaining = 0-25%) | > 116 | –
13 | c1cnnc(N[C@H]2CC[C@@H](Oc3nc(N4CCOCC4)cc4ncccc34)CC2)c1 [Compound 29, N-((1s,4s)-4-((7-morpholino-1,6-naphthyridin-5-yl)oxy)cyclohexyl)pyridazin-3-amine] | 0.5 to 1 | 0.5 to 1 | < 0.1 | < 0.0005 | E (% remaining = 0-25%) | > 116 | –
14 | O=C(N[C@H]1CC[C@@H](Oc2nc(N3CCOCC3)cc3ncccc23)CC1)c1ncc[nH]1 [Compound 143, N-((1s,4s)-4-((7-morpholino-1,6-naphthyridin-5-yl)oxy)cyclohexyl)-1H-imidazole-2-carboxamide] | 0.5 to 1 | 0.5 to 1 | < 0.1 | < 0.0005 | E (% remaining = 0-25%) | > 116 | –
15 | Cc1ccnc(C(=O)N[C@H]2CC[C@@H](Oc3nc(N4CCOCC4)cc4ncccc34)CC2)n1 [Compound 127] | 1 to 10 | 1 to 10 | 0.1 to 1 | 0.0005 to 0.001 | F (% remaining = 25-50%) | > 116 | –
16 | C[C@]1(n2ccnc2)CC[C@@H](Oc2nc(N3CCOCC3)cc3ncccc23)CC1 [Compound 11, 4-(5-(((1s,4s)-4-(1H-imidazol-1-yl)-4-methylcyclohexyl)oxy)-1,6-naphthyridin-7-yl)morpholine] | – | – | – | 0.01 to 0.15 | E (% remaining = 0-25%) | > 116 | –
